Values joined by “and” are separate entries in the source; they are usually repeats but may differ in a detail not shown here. Equal entries are not always repeated. Inconclusive results and toxic doses are left out. The calls were made as follows: active = survival T/C of 150% or more; inactive = T/C below 125% in these data.
Test system: P388 leukemia ip, CD2F1 mice, survival T/C
Assay: NCI In Vivo Anticancer Drug Screen. Data for tumor model P388 Leukemia (intraperitoneal) in CD2F1 (CDF1) mice
Conditions: endpoint: median survival time, higher = longer survival
In short: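 Mice carrying the transplanted tumor received test compound or vehicle. Survival was recorded in each group, and the value is the treated-group measurement divided by that of the vehicle-treated control group.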

[1] = dose: 50.0 mg/kg/injection, schedule: Q01DX009 (ip), vehicle: saline with Tween-80
[2] = dose: 60.0 mg/kg/injection, schedule: Q01DX005 (ip), vehicle: Klucel (hydroxypropylcellulose) (HPC)
[3] = dose: 60.0 mg/kg/injection, schedule: Q01DX005 (ip), vehicle: saline with Tween-80
[4] = dose: 120.0 mg/kg/injection, schedule: Q01DX005 (ip), vehicle: saline with Tween-80
[5] = dose: 100.0 mg/kg/injection, schedule: Q01DX009 (ip), vehicle: saline with Tween-80
[6] = dose: 200.0 mg/kg/injection, schedule: Q01DX009 (ip), vehicle: saline with Tween-80
[7] = dose: 12.5 mg/kg/injection, schedule: Q04DX003 (ip), vehicle: saline with Tween-80
[8] = dose: 25.0 mg/kg/injection, schedule: Q04DX003 (ip), vehicle: saline with Tween-80
[9] = dose: 50.0 mg/kg/injection, schedule: Q04DX003 (ip), vehicle: saline with Tween-80
[10] = dose: 120.0 mg/kg/injection, schedule: Q01DX005 (ip), vehicle: Klucel (hydroxypropylcellulose) (HPC)
[11] = dose: 240.0 mg/kg/injection, schedule: Q01DX005 (ip), vehicle: saline with Tween-80
[12] = dose: 12.5 mg/kg/injection, schedule: Q01DX009 (ip), vehicle: water
[13] = dose: 50.0 mg/kg/injection, schedule: Q01DX009 (ip), vehicle: water
[14] = dose: 100.0 mg/kg/injection, schedule: Q01DX009 (ip), vehicle: water
[15] = dose: 200.0 mg/kg/injection, schedule: Q01DX009 (ip), vehicle: water
[16] = dose: 240.0 mg/kg/injection, schedule: Q01DX005 (ip), vehicle: Klucel (hydroxypropylcellulose) (HPC)
[17] = dose: 50.0 mg/kg/injection, schedule: Q01DX005 (ip), vehicle: saline with Tween-80
[18] = dose: 100.0 mg/kg/injection, schedule: Q01DX005 (ip), vehicle: saline with Tween-80
[19] = dose: 200.0 mg/kg/injection, schedule: Q01DX005 (ip), vehicle: saline with Tween-80
[20] = dose: 50.0 mg/kg/injection, schedule: Q01DX005 (ip), vehicle: Klucel (hydroxypropylcellulose) (HPC)
[21] = dose: 100.0 mg/kg/injection, schedule: Q01DX005 (ip), vehicle: Klucel (hydroxypropylcellulose) (HPC)

Measured: T/C

CC[C@H]1CN2CCc3cc(OC)c(OC)cc3[C@@H]2C[C@@H]1C[C@@H]1c2cc(OC)c(OC)cc2CCN1N=O
inactive: dose: 6.25 mg/kg/injection, schedule: Q01DX009 (ip), vehicle: saline with Tween-80 96 % of control | dose: 12.5 mg/kg/injection, schedule: Q01DX009 (ip), vehicle: saline with Tween-80 99 % of control | dose: 25.0 mg/kg/injection, schedule: Q01DX009 (ip), vehicle: saline with Tween-80 107 % of control | [1] 100 % of control

CCOC(=O)c1c[nH]c2c(ccc3cccnc32)c1=O
inactive: dose: 15.0 mg/kg/injection, schedule: Q01DX005 (ip), vehicle: Klucel (hydroxypropylcellulose) (HPC) 99 % of control | dose: 30.0 mg/kg/injection, schedule: Q01DX005 (ip), vehicle: Klucel (hydroxypropylcellulose) (HPC) 99 % of control | dose: 50.0 mg/kg/injection, schedule: Q01DX009 (ip), vehicle: saline 99 % of control | [2] 99 % of control and 97 % of control | dose: 100.0 mg/kg/injection, schedule: Q01DX009 (ip), vehicle: saline 117 % of control | dose: 200.0 mg/kg/injection, schedule: Q01DX009 (ip), vehicle: saline 99 % of control

Cc1ccc(OC/C=N\N=C(N)N)cc1C
inactive: [3] 101 % of control | [4] 93 % of control

Cc1c(C)c2c(c(C)c1OP(=O)(N1CC1)N1CC1)CCC(C)(CCCC(C)CCCC(C)CCCC(C)C)O2 (centres undefined)
inactive: [1] 105 % of control | [5] 105 % of control | [6] 102 % of control

c1cc2c(c(NC3=NCCCO3)c1)CCCC2
inactive: [7] 108 % of control | [8] 108 % of control | [9] 100 % of control

Cc1cccc(/C(=C\c2ccc([N+](=O)[O-])cc2)C(=O)Nc2ccc(S(=O)(=O)F)c(C)c2)c1
inactive: [2] 88 % of control | [10] 86 % of control

NC(N)=N/N=C\c1ccnc2ccccc12
inactive: dose: 7.5 mg/kg/injection, schedule: Q01DX005 (ip), vehicle: saline 100 % of control | dose: 15.0 mg/kg/injection, schedule: Q01DX005 (ip), vehicle: saline 105 % of control | dose: 30.0 mg/kg/injection, schedule: Q01DX005 (ip), vehicle: saline 105 % of control | dose: 60.0 mg/kg/injection, schedule: Q01DX005 (ip), vehicle: saline 105 % of control

O=c1oc2ccc(Cl)cc2c(=O)n1-c1cc(Cl)ccc1[N+](=O)[O-]
inactive: dose: 50.0 mg/kg/injection, schedule: Q01DX005 (ip), vehicle: saline 100 % of control | dose: 100.0 mg/kg/injection, schedule: Q01DX005 (ip), vehicle: saline 99 % of control | dose: 200.0 mg/kg/injection, schedule: Q01DX005 (ip), vehicle: saline 104 % of control

C/C(=N\N=C(\[Se])N(C)C)c1ccccn1
inactive: [7] 106 % of control | [8] 106 % of control | [9] 106 % of control

C/C(CC(C)C)=N\NC(=O)CNC(=O)c1ccccc1
inactive: [3] 100 % of control | [4] 106 % of control | [11] 95 % of control

O=C1C2C3C=CC(C3)C2C(=O)C2(CO)OC12 (centres undefined)
inactive: dose: 62.5 mg/kg/injection, schedule: Q04DX002 (ip), vehicle: saline 97 % of control | dose: 125.0 mg/kg/injection, schedule: Q04DX002 (ip), vehicle: saline 95 % of control | dose: 250.0 mg/kg/injection, schedule: Q04DX002 (ip), vehicle: saline 97 % of control

CCn1c(Cl)c(C=O)c2ccccc21
inactive: dose: 100.0 mg/kg/injection, schedule: Q01DX001 (ip), vehicle: Klucel (hydroxypropylcellulose) (HPC) 100 % of control | dose: 200.0 mg/kg/injection, schedule: Q01DX001 (ip), vehicle: Klucel (hydroxypropylcellulose) (HPC) 92 % of control | dose: 400.0 mg/kg/injection, schedule: Q01DX001 (ip), vehicle: Klucel (hydroxypropylcellulose) (HPC) 95 % of control

COP(=O)(OC)C(=[N+]=[N-])c1ccccc1
inactive: dose: 6.25 mg/kg/injection, schedule: Q01DX009 (ip), vehicle: water 98 % of control | [12] 106 % of control | [13] 93 % of control | [14] 98 % of control | [15] 90 % of control

COC(=O)c1nc(=S)[nH]c(C(=O)OC)c1C(=O)c1ccc([N+](=O)[O-])cc1
inactive: [2] 101 % of control | [10] 95 % of control | [16] 91 % of control

CN1CCC(O)CC1=O (centres undefined)
inactive: [17] 104 % of control | [18] 98 % of control | [19] 101 % of control

O=c1c(Br)cc(CN2CCOCC2)cc(CN2CCOCC2)c1O
inactive: [1] 112 % of control | [5] 116 % of control

O=C(O)c1cc(-c2ccc(-c3ccc(-c4cc(C(=O)O)c5cc(Cl)ccc5n4)cc3)cc2)nc2ccc(Cl)cc12
inactive: [5] 92 % of control | [6] 94 % of control | dose: 400.0 mg/kg/injection, schedule: Q01DX009 (ip), vehicle: saline with Tween-80 109 % of control

CC1C2CCN(C)C1Cc1ccc(O)cc12 (centres undefined)
inactive: [17] 94 % of control | [18] 92 % of control | [19] 100 % of control

C[N+](C)(C)CC1CS1 (centres undefined)
inactive: dose: 4.5 mg/kg/injection, schedule: Q01DX009 (ip), vehicle: saline 104 % of control | dose: 9.0 mg/kg/injection, schedule: Q01DX009 (ip), vehicle: saline 95 % of control | dose: 18.0 mg/kg/injection, schedule: Q01DX009 (ip), vehicle: saline 100 % of control

COc1cc2ccc(/C=N/NC(N)=S)cc2cc1OC
inactive: [12] 96 % of control | dose: 25.0 mg/kg/injection, schedule: Q01DX009 (ip), vehicle: water 90 % of control | [13] 96 % of control | [14] 91 % of control | [15] 89 % of control

CN(CC#CCN(C)C1=NC(=O)CC1)C1=NC(=O)CC1
inactive: [2] 92 % of control | [10] 94 % of control | [16] 100 % of control

CN(C)C1CCc2ccc3ccccc3c2C1=O (centres undefined)
inactive: [20] 98 % of control | [21] 103 % of control

O=C1C=CC(=NBr)C=C1
inactive: [3] 108 % of control | [4] 110 % of control | [11] 108 % of control

O=C(Nc1ccc(CSc2ccc(Cl)cc2)o1)N1CCOCC1
inactive: [17] 107 % of control | [18] 99 % of control | [19] 98 % of control

CCOC1(NC(=O)N(C)C)CC1
inactive: dose: 50.0 mg/kg/injection, schedule: Q04DX003 (ip), vehicle: saline 103 % of control | dose: 100.0 mg/kg/injection, schedule: Q04DX003 (ip), vehicle: saline 102 % of control | dose: 200.0 mg/kg/injection, schedule: Q04DX003 (ip), vehicle: saline 102 % of control

Cc1[nH]cc2c1C(c1ccccc1)=NCC(=O)N2
inactive: [1] 105 % of control | [5] 100 % of control | [6] 114 % of control

CC(C(=O)O)N1C(=O)CNC1=O (centres undefined)
inactive: [20] 93 % of control | [21] 91 % of control | dose: 200.0 mg/kg/injection, schedule: Q01DX005 (ip), vehicle: Klucel (hydroxypropylcellulose) (HPC) 100 % of control

CC(=O)C1=C(O)C(CC(C)C)NC1=O (centres undefined)
inactive: dose: 25.0 mg/kg/injection, schedule: Q01DX005 (ip), vehicle: Klucel (hydroxypropylcellulose) (HPC) 102 % of control | [20] 102 % of control | [21] 101 % of control

Source: PubChem BioAssay AID330 (DTP/NCI, 2004)
